From US20140187638A1, “PHENYLBUTYRATE IN RECTAL FORM FOR THE TREATMENT OF A MOTOR NEURON DISEASE OR A METABOLIC DISEASE” (GMP-ORPHAN, priority 2011, published 2014)

Key:
[1] = system: patients with SMA type II; conditions: oral, 9 weeks, cited from earlier work
[2] = after per os ingestion; cited from earlier work
juvenile minipigs = assay: 13-week repeat-dose toxicity study, rectal administration; format: in vivo; conditions: 13 weeks, 5 doses per day, 550 to 13,750 mg/kg
Procedure: The aim of this study was to test the toxicity of repeated administrations of sodium phenylbutyrate (NaPB) by the intended human route in juvenile minipigs (13-week study, total dose divided into 5 doses per day). Minipig is a model of interest for studies of local tolerance due to similarities between properties of the skin of pigs of the one of humans.
A 13-week repeat-dose toxicity study was conducted in juvenile minipigs using the rectal administration route of sodium phenylbutyrate (NaPB). One group was treated […] at the pharmacological dose of NaPB. One group received oral NaPB (total dose divided into 5 doses per day) for comparison.
The study included safety pharmacology evaluation, toxicokinetic (TK) determination, as well as a four-week recovery period.
Earliest dosing was started at 7 days of age. Oral gavage (5 times daily at 3-4 hour intervals) and rectal administration (5 times daily at 3-4 hour intervals) were performed during 13 weeks. A recovery period of 28 days was performed.
The recovery animals were housed for additional 28 days after dosing. The piglets were weighed twice weekly throughout the study. Growth measurements were performed twice weekly. Ophthalmology, electrocardiography were done the last day of treatment. […] The parameters measured met standard guidelines. […]

patients with SMA = conditions: oral, 500 mg/kg/day, intermittent regimen, 13 weeks, 107 patients; cited from earlier work
SMA = conditions: in vivo; cited from earlier work

Row | SMILES | scores on a motor scale ([1]; 500 mg/kg/day in five doses, 7 days on and 7 days off, 10 patients) | side effects ([1]; 500 mg/kg/day) | half-life [2] [min] | toxicity (juvenile minipigs) | efficacy (patients with SMA) | tolerability (patients with SMA) | efficacy (SMA)
1 | O=C([O-])CCCc1ccccc1.[Na+] [4-phenylbutyrate, sodium 4-phenylbutyrate] | significant increase | no major side effect | 46.2 | No toxicity was observed | not shown to be effective | well tolerated | –
2 | CCCC(CCC)C(=O)O [Valproic acid, valproic acid] | – | – | – | – | – | – | do not seem to have given significant results
3 | NC(=O)NO [hydroxyurea] | – | – | – | – | – | – | do not seem to have given significant results
